Patent publication EP0926242A1, “GLIOTOXIN DERIVATIVES AND ANTICANCER AGENT COMPRISING THE SAME” (priority 1996, dated 1998)

Tests used:
[1] = system: Human carcinoma of the colon cell strain HCT-116; assay: Tertiary culture using test human cancer, killed cells by MTT method; assay type: cell-based; settings: incubated 3 days
Protocol: Tertiary cultures were carried out using a human carcinoma of the colon tissue in stage 2b. The tertiary cultures were carried out according to the reported method (Int.J.Cancer Res., 82, 607-612 (1991), Gan to Kagakuryoho, 18, 239-243 (1991), Gan to Kagakuryoho, 19, 743-748 (1992)). The extracted tissue of carninoma of the colon was cut into square pieces having a side of about 2 mm, and incubated in a RPMI- 1640 medium containing 10 % fetal calf serum under 5 % CO2 at 37 °C for 3 days. Existing anticancer agents or acetylgliotoxin were diluted and added, and further incubated for 3 days. Then, the rate of killed cells was determined by the MTT method. The tertiary cultures using the test human cancer were carried out as follows: Human carcinoma of the colon cell strain HCT-116 was transplanted into the subcutaneous tissue of a nude mouse (Balb nu/nu) to induce tumor. The cancer tissue was extracted from the tumor-induced portion, and cut into square pieces having a side of 2 mm. The evaluation of the existing anticancer agents and acetylyliotoxin was earried out according to the aforementioned method.

[2] = system: mouse carcinoma of the colon cells colon 26; assay: Anticancer effect in vivo against colon 26 (Example 9 A); settings: CDFI mice
Protocol: • (A) Evaluationin vivo using mouse carcinoma of the colon cells colon 26 CDFI mice (female : 4 weks age) were bought, and colon 26 subcultured in the subcutaneous tissue of the mouse was taken out, and cut into small pieces by a scissors. The cancer cells were transplanted into subcutaneous tisue of CDFI mice by a trucker. The day was assigned 0 day, and the tumor was measured by a slide caliper after 7 days. The volume of the tumor was calculated, and divided into groups (each group : n = 4). The text compound was dissolved in dimethylsulfoxide, and diluted with 5 % Tween 80- saline aqueous solution. […] The administration was carried out after 7 days, after 11 days and after 15 days or after 7 days and after 8 days from the transplantation at a rate of once per one day. 21st day from the transplantation, the volume of tumor was measured and the volume of tumor and the inhibition against tumor multiplication rate (I.R.) were calculated. The volume of tumor was calculated by the following formula. (Tumore Volume [mm)^3 (]= Minor Axis [mm])^2 × Major Axis [mm] × (1/2) [formula] • The inhibition against tumor multiplication rate (I.R.) was calculated by the following formula. I.R. [%] = {1- (Average Tumor Volume of Administration Group / Average Tumor Volume of Control Group)) × 100 [formula] • (B) Evaluation in vivo using human carcinoma of the colon cells HCT-116 Balb/c nu/nu mice (female : 5 weks age) were bought, and HCT-116 (Dainippon Seiyaku) subcultured in the subcutaneous tissue of the mouse was taken out, and cut into small pieces by a scissors. The cancer cells were transplanted into subcutaneous tissue of […] mice by a trucker. The day was assigned 0 day, and the tumor was measured by a slide caliper after 7 days. The volume of the tumor was calculated, and divided into groups (each group : n = 2). The text compound was dissolved in dimethylsulfoxide, and diluted with 5 % Tween 80- saline aqueous solution. […] The administration was carried out after 7 days, after 11 days and after 15 days from the transplantation at a rate of once per one day. 21st day from the transplantation, the volume of tumor was measured and the volume of tumor and the inhibition against tumor multiplication rate (I.R.) were calculated by the above formulas.

[3] = system: mouse carcinoma of the colon COLON-26; assay: Evaluation in vivo using mouse carcinoma of the colon COLON-26 (Example 1); settings: day 21, CDFI mice
Protocol: CDFI mice (female: 4 weeks old) were bought, and colon-26 subcultured in vivo in the subcutaneous tissue was taken out. The colon-26 was minced in a Petridish, and transplanted into the sulcutaneous tissue of CDFI mice in an amount of 10 mg/mouse by a trucker. The transplanted day was assigned day 0, and the size of the tumor and body weight were measured on day 7 and divided into groups by n=4. The size of tumor was calculated as tumor weight by the following formula. (Tumor Weight (mg) = Tumor Volume (mm)^3 =1/2 × Major Axis (mm) × Minor Axis (mm))^2 [formula]
Administration was carried out from day 7 according to the following schedule. Dose was 0.2 mL/mouse, and injected into abdominal cavity. Acetylgliotoxin was dissolved in dimethyl sulfoxide (DMSO) in a concentration of 100 mg/mL, and adjusted to an object concentration (0.5 mg/kg, 1 mg/kg, 10 mg/kg, 20 mg/kg) by 5% Tween 80 (saline solution). In the evaluation of […], 1 mg/kg, injection was carried out every day for 5 days, in the case of 10 mg/kg, injected twice on day 7 and day 8, and in the case of 20 mg/kg, injected once on day 7.
The anticancer effect was evaluated by the inhibition rate of tumor cell multiplication (IR calculated from the weight of tumor. IR was obtained by the following formula. IR (%) = (1-Tumor Weight of Administration Group/Tumor Weight of Control Group) [formula]

[4] = system: various cancer cells; assay: Judgement of apoptosis by DAPI nucleus staining; assay type: cell-based; settings: agglomeration of chromosomes, fluorescence microscope
Protocol: Antitumor activity of acetylgliotoxin against various cancer cells was measured by the MTT method. Various cancer cells were adjusted to 4.0 × 10^4 cells/mL by using a medium (hereinafter referred to as medium A) composed of RPMI 1640 medium (GIBCO) containing 10% fetal calf serum, and each 0.1 mL of the cancer cells was pipetted into each well of a 96 well microtiter plate. The plate was incubated in a carbon dioxide gas incubator at 37 °C for 20 hours, and each 0.025 mL of samples (test compounds) suitably diluted with the medium A was added. Then, incubation was further carried out in the carbon dioxide gas incubator at 37 °C for 72 hours. […] Produced crystals were dissolved, and absorbance at 570 nm was measured by a microplate reader. […] Apoptosis was determined by incubating the plate in the carbon dioxide gas incubator at 37 °C for 20 hours, adding each 0.025 mL of samples (test compounds) suitably diluted with the medium A, incubating in the carbon dioxide gas incubator at 37 °C for 72 hours, according to the above method, adding nucleus-staining fluorescent dye DAPI (4,6 - diaminodino-2-henylindole) to each well so as to become 0.5 ng/mL, and after leaving at room temperature for 10 minutes, confirming agglomeration of chromosomes by using a fluorescence microscope.

[5] = 2.5[mg/kg]×3 (i.p.), 7,11,15th days
[6] = 5 [mg/kg]×3 (i.p.), 7,11,15th days
[7] = 10 [mg/kg]×2 (i.p.), 7,8th days

SMILES: CC(=O)OC1C=CC=C2CC34SSC(CO)(C(=O)N3C21)N(C)C4=O (centres unmarked) [acetylgliotoxin]
- I. R. (%) ([1]; conc. 6.25 ug/mL): 43%
- I. R. (%) ([1]; conc. 12.5 ug/mL): 56%
- I. R. (%) ([1]; conc. 25 ug/mL): 67%
- I.R. (21st day) [2, 5]: 19.6%
- I.R.Max [2, 5]: 44.9%
- I.R. (21st day) [2, 6]: 11.8%
- I.R.Max [2, 6]: 56.8%
- I.R. (21st day) [2, 7]: 26.0%
- I.R.Max [2, 7]: 68.8%
- I. R. (%) ([3]; 0.5 mg/kg×5 i.p.(d7-11)): 28%
- I. R. (%) ([3]; 1 mg/kg×5 i.p.(d7-11)): 19%
- I. R. (%) ([3]; 10 mg/kg×2 i.p.(d7, 8)): 38%
- I. R. (%) ([3]; 20 mg/kg×1 i.p.(d7)): 34%
- apoptosis (cell death) -inducing ability [4]: apoptosis (cell death) -inducing ability
